Measurements from patent publication US20250127169A1, “PLANTS HAVING INCREASED TOLERANCE TO HERBICIDES” (BASF Agricultural Solutions Seed US LLC, priority 2021, published 2025).
Like-named read-outs stand apart in the source and are kept apart here.

How the values were obtained:
[1] = system: Soybean CD215 WT (non-transgenic); type: in vivo; conditions: post, single plants
[2] = system: Soybean cv Jake WT (non-transgenic); type: in vivo; conditions: post, single plants
Method: Soybean cv Jake is transformed as previously described by Siminszky et al., Phytochem Rev. 5:445-458 (2006). After regeneration, transformants are transplanted to soil in small pots, placed in growth chambers (16 hr day/8 hr night; 25° C. day/23° C. night; 65% relative humidity; 130-150 microE m-2 s-1) and subsequently tested for the presence of the T-DNA via Taqman analysis. After a few weeks, healthy, transgenic positive, single copy events are transplanted to larger pots and allowed to grow in the growth chamber. An optimal shoot for cutting is about 3-4 inches tall, with at least two nodes present. Each cutting is taken from the original transformant (mother plant) and dipped into rooting hormone powder (indole-3-butyric acid, IBA). The cutting is then placed in oasis wedges inside a bio-dome. The mother plant is taken to maturity in the greenhouse and harvested for seed. Wild type cuttings are also taken simultaneously to serve as negative controls. The cuttings are kept in the bio-dome for 5-7 days and then transplanted to 3 inch pots and then acclimated in the growth chamber for two more days. Subsequently, the cuttings are transferred to the greenhouse, acclimated for approximately 4 days prior to spray. T0 or 2-week old T1 plants are sprayed with a treatment of the phenyluracils as disclosed SUPRA and optionally photosynthesis inhibitor diuron as negative control. Herbicide injury evaluations are taken at 2, 7, 14 and 21 days after treatment.
Evaluation performed 3 Days After Treatment (DAT) and 1 Week after Treatment (WAT) and shown as injury (0-9) relative to non-transgenic treated plants. Injury Scale: 0-9, 0=no injury, 9=maximum injury. Note: segregating lines.
The following gives a definition of the injury scores measured above: • Score Description of injury • 0 No Injury • 1 Minimal injury, only a few patches of leaf injury or chlorosis. • 2 Minimal injury with slightly stronger chlorosis. Overall growth points remain undamaged. • 3 Slightly stronger injury on secondary leaf tissue, but primary leaf and growth points are still undamaged. • 4 Overall plant morphology is slightly different, some chlorosis and necrosis in secondary growth points and leaf tissue. Stems are intact. Regrowth is highly probable within 1 week. • 5 Overall plant morphology is clearly different, some chlorosis and necrosis on a few leaves and growth points, but primary growth point is intact. Stem tissue is still green. Regrowth is highly probably within 1 week. • 6 Strong injury can be seen on the new leaflet growth. Plant has a high probability to survive only through regrowth at different growth points. Most of the leaves are chlorotic/necrotic but stem tissue is still green. May have regrowth but with noticeable injured appearance. • 7 Most of the active growth points are necrotic. There may be a single growth point that could survive and may be partially chlorotic or green and partially necrotic. Two leaves may still be chlorotic with some green; the rest of the plant including stem is necrotic. • 8 Plant will likely die, and all growth points are necrotic. One leaf may still be chlorotic with some green. The remainder of the plant is necrotic. • 9 Plant is dead.

[3] = target: PPO AMATU WT (SEQ ID NO: 1) (Amaranthus tuberculatus, UniProt Q0NZW9); test: PPO enzyme assay (recombinant); type: biochemical; conditions: 150 μM Protogen, molar concentration for 50% enzyme inhibition

**Q.** With `COC(=O)C(OC)Oc1ccccc1Oc1cc(-n2c(=O)cc(C(F)(F)F)n(C)c2=O)c(F)cc1Br` (stereo not drawn) [Phenyluracil No. 1] as the molecule, how does the “injury (0-9)” value ([1]; 25 g/ha + 1% MSO, 1WAT) read?
**A.** The value was 9 (Plant is dead.).

**Q.** And the “injury (0-9)” value ([1]; 25 g/ha + 1% MSO, 3DAT)?
**A.** Its value is 9 (Plant is dead.).

**Q.** What about the “injury (0-9)” value ([1]; 50 g/ha + 1% MSO, 1WAT) of the same molecule?
**A.** The value was 9 (Plant is dead.).

**Q.** What about the “injury (0-9)” value ([1]; 50 g/ha + 1% MSO, 3DAT) of the same molecule?
**A.** Its value is 9 (Plant is dead.).

**Q.** What about the “injury (0-9)” value ([1]; 100 g/ha + 1% MSO, 1WAT) of the same molecule?
**A.** The value was 9 (Plant is dead.).

**Q.** What about the “injury (0-9)” value ([1]; 100 g/ha + 1% MSO, 3DAT) of the same molecule?
**A.** The value was 9 (Plant is dead.).

**Q.** And the “injury (0-9)” value ([2]; 25 g/ha + 1% MSO, 1WAT)?
**A.** The value was 9 (Plant is dead.).

**Q.** What about the “injury (0-9)” value ([2]; 25 g/ha + 1% MSO, 3DAT) of the same molecule?
**A.** Its value is 9 (Plant is dead.).

**Q.** What about the “injury (0-9)” value ([2]; 50 g/ha + 1% MSO, 1WAT) of the same molecule?
**A.** The value was 9 (Plant is dead.).

**Q.** And the “injury (0-9)” value ([2]; 50 g/ha + 1% MSO, 3DAT)?
**A.** The value was 9 (Plant is dead.).

**Q.** What about the “injury (0-9)” value ([2]; 100 g/ha + 1% MSO, 1WAT) of the same molecule?
**A.** Its value is 9 (Plant is dead.).

**Q.** What about the “injury (0-9)” value ([2]; 100 g/ha + 1% MSO, 3DAT) of the same molecule?
**A.** Its value is 9 (Plant is dead.).

**Q.** With `COC(=O)C(OC)Oc1ccccc1Oc1cc(-n2c(=O)cc(C(F)(F)F)n(C)c2=O)c(F)cc1Br` (stereo not drawn) [phenyluracil 1, methyl 2-[2-[2-bromo-4-fluoro-5-[3-methyl-2,6-dioxo-4-(trifluoromethyl)pyrimidin-1-yl]phenoxy]phenoxy]-2-methoxy-acetate] as the molecule, how does the IC50 [3] read?
**A.** The IC50 was 0.716 nM.

**Q.** For `CCOC(=O)C(OC)Oc1ccccc1Oc1cc(-n2c(=O)cc(C(F)(F)F)n(C)c2=O)c(F)cc1Br` (stereo not drawn) [phenyluracil 2, ethyl 2-[2-[2-bromo-4-fluoro-5-[3-methyl-2,6-dioxo-4-(trifluoromethyl)pyrimidin-1-yl]phenoxy]phenoxy]-2-methoxy-acetate], which IC50 [3] is on record?
**A.** Its IC50 is 0.323 nM.

**Q.** How did the IC50 [3] turn out when `COC(Oc1ccccc1Oc1cc(-n2c(=O)cc(C(F)(F)F)n(C)c2=O)c(F)cc1Br)C(=O)O` (stereo not drawn) [phenyluracil 3, 2-[2-[2-bromo-4-fluoro-5-[3-methyl-2,6-dioxo-4-(trifluoromethyl)pyrimidin-1-yl]phenoxy]phenoxy]-2-methoxy-acetic acid] was run?
**A.** Its IC50 is 0.183 nM.
